Patent US7858650B2, “Medicinal composition for inhalation” (Ono Pharmaceutical Co., Ltd., priority 2004, dated 2010)

Experiments:
Assay type in all cases: in vivo
[1] = test system: histamine-induced airway contractile response; assay: Inhibitory activity on histamine-induced airway contractile response and hypotensive activity, intravenous or inhalation administration; details: anesthetized guinea pig, histamine 10 μg/kg i.v.; inhalation (5 minutes, nebulizer) versus intravenous administration; FIG. 1
Experimental: (1) Inhibitory Activity on Histamine-Induced Airway Contractile Response and Hypotensive Activity of Intravenous Administration or Inhalation Administration in Guinea Pig
A guinea pig anesthetized with sodium pentobarbital (75 mg/kg, i.p.) was treated with gallamine (10 mg/kg, i.v.), and an experiment was carried out under artificial respiration. As an airway contraction inducing substance, histamine (10 μg/kg, i.v.) was used, and the airway contractile response was determined by the Konzett & Roessler method (Konzett, H., Roessler, R. Versuchsanordnung zu untersuchungen ander Bronchial-muskulatur. Arch Exp Pathol Pharmacol 1940; 195:71-74). Additionally, the blood pressure was also measured at the same time. A test substance was administered intravenously or by inhalation (the test substance or a physiological saline solution was atomized using an ultrasonic nebulizer and inhaled directly into the trachea for 5 minutes using an artificial respirator). An inhibition ratio of airway contraction (%) was calculated by taking the airway contraction induced by histamine before administration of the test substance or in a group administered with a physiological saline solution as 0% inhibition. The amount of blood pressure reduction (mmHg) was expressed as the amount of diastolic blood pressure reduction. […] From this, it was shown that the pharmaceutical composition for inhalation of the present invention has an inhibitory effect on airway contraction and its hypotensive effect is small.

[2] = test system: methacholine-induced airway contractile response; assay: Effect of intratracheal administration on methacholine-induced airway contractile response; details: guinea pig, methacholine 10 μg/kg i.v.
Experimental: (2) Effect of Compound of the Present Invention by Intratracheal Administration on Methacholine-Induced Airway Contractile Response in Guinea Pig
A test substance was intratracheally administered to a guinea pig anesthetized with GOI (laughing gas:oxygen=3:1, 3% isoflurane) using a tube for intratracheal administration. After a certain period of time, the guinea pig was anesthetized with sodium pentobarbital (50 mg/kg, i.p.) and treated with gallamine (10 mg/kg, i.v.). Then, the resulting airway contractile response was determined under artificial respiration. As an airway contraction inducing substance, methacholine (10 μg/kg, i.v.) was used, and the airway contractile response was determined by the Konzett & Roessler method. A ratio of airway contraction (% of maximum) was calculated by taking the airway response obtained by closing a three-way stopcock attached to an upper part of a cannula inserted into the tracheal tube of the guinea pig as 100%.

[3] = test system: methacholine-induced airway contractile response; assay: Bronchodilator effect of a sustained prodrug of EP2 agonist (methacholine-induced airway contraction, intratracheal); details: guinea pig, intratracheal administration, methacholine 10 μg/kg i.v., airway contractile response measured for 3 hours; FIGS. 7 and 9
Experimental: (§1) (3) Bronchodilator Effect and Hypotensive Effect of a Sustained Prodrug of EP2 Agonist
(§2) A guinea pig anesthetized with sodium pentobarbital (50 mg/kg, i.p.) was treated with gallamine (10 mg/kg, i.v.), and an experiment was carried out under artificial respiration. As an airway contraction inducing substance, methacholine (10 μg/kg, i.v.) was used, and the airway contractile response was determined by the Konzett & Roessler method. Compound B was dissolved in an equimolar amount of sodium hydroxide and diluted with a physiological saline solution. Compound F was suspended in a physiological saline solution containing 2% ethanol and 10% Tween 80 to prepare a test substance. The test substance was intratracheally administered using a tube for intratracheal administration. After the administration of the test substance, the blood pressure and the airway contractile response were measured for 12.5 minutes and 3 hours, respectively. A ratio of airway contraction (%) was calculated by taking the airway response obtained by closing a three-way stopcock attached to an upper part of a cannula inserted into the tracheal tube of the guinea pig as 100% contraction. The amount of blood pressure reduction (mmHg) was expressed based on the blood pressure before administration of the test substance.

[4] = Hypotensive effect of a sustained prodrug of EP2 agonist (blood pressure after intratracheal administration); details: guinea pig, blood pressure measured for 12.5 minutes after administration, FIGS. 6 and 8
Experimental: as §1, §2

**Q.** For `CCC1([C@@H](O)C/C=C/[C@H]2CCC(=O)N2CCSc2nc(C(=O)O)cs2)CCC1` [Compound A, 2-[(2-{(2R)-2-[(1E,4S)-4-(1-ethylcyclobutyl)-4-hydroxybut-1-enyl]-5-oxopyrrolidin-1-yl}ethyl)sulfanyl]-1,3-thiazole-4-carboxylic acid], which “dissociation between the inhibitory effect on airway contraction and the hypotensive effect” value [1] is on record?
**A.** became larger by inhalation administration than by intravenous administration

**Q.** Which “time after administration at which the bronchodilator effect was lost” value ([2]; FIG. 2) does the source give for `O=C(O)c1csc(SCCN2C(=O)CC[C@@H]2COc2cc(Cl)cc(Cl)c2)n1` [Compound B, 2-[(2-{(2R)-2-[(3,5-dichlorophenoxy)methyl]-5-oxopyrrolidin-1-yl}ethyl)thio]-1,3-thiazole-4-carboxylic acid] here?
**A.** around 3 hours

**Q.** What about the bronchodilator effect ([2]; FIGS. 2 to 5) of the same molecule?
**A.** has a bronchodilator effect

**Q.** What about the “dissociation between the inhibitory effect on airway contraction and the hypotensive effect” value [1] of the same molecule?
**A.** became larger by inhalation administration than by intravenous administration

**Q.** With `O=C(O)c1csc(SCCN2C(=O)CC[C@@H]2COc2cccc(C(F)(F)F)c2Cl)n1` [Compound C, 2-{[2-((2R)-2-{[2-chloro-3-(trifluoromethyl)phenoxy]methyl}-5-oxopyrrolidin-1-yl)ethyl]sulfanyl}-1,3-thiazole-4-carboxylic acid] as the molecule, how does the “dissociation between the inhibitory effect on airway contraction and the hypotensive effect” value [1] read?
**A.** became larger by inhalation administration than by intravenous administration

**Q.** For `O=C(O)c1csc(SCCN2C(=O)CC[C@@H]2COc2cccc(OC(F)(F)F)c2)n1` [Compound D, 2-{[2-((5R)-2-oxo-5-{[3-(trifluoromethoxy)phenoxy]methyl}pyrrolidin-1-yl)ethyl]sulfanyl}-1,3-thiazole-4-carboxylic acid], which “dissociation between the inhibitory effect on airway contraction and the hypotensive effect” value [1] is on record?
**A.** became larger by inhalation administration than by intravenous administration

**Q.** With `CCCCOC(=O)c1csc(SCCN2C(=O)CC[C@@H]2COc2cc(Cl)cc(Cl)c2)n1` [Compound E, butyl 2-[(2-{(2R)-2-[(3,5-dichlorophenoxy)methyl]-5-oxopyrrolidin-1-yl}ethyl)thio]-1,3-thiazole-4-carboxylate] as the molecule, how does the “duration of activity (bronchodilator effect), comparison” value (from here on “duration of activity”) ([2]; FIGS. 2 to 5) read?
**A.** more prolonged duration of activity compared with Compound B

**Q.** With `CCCCCCCCCCCOC(=O)c1csc(SCCN2C(=O)CC[C@@H]2COc2cc(Cl)cc(Cl)c2)n1` [Compound F, undecyl 2-[(2-{(2R)-2-[(3,5-dichlorophenoxy)methyl]-5-oxopyrrolidin-1-yl}ethyl)sulfanyl]-1,3-thiazole-4-carboxylate] as the molecule, how does the “duration of bronchodilator activity, comparison” value [3] read?
**A.** prolonged duration of bronchodilator activity compared with Compound B

**Q.** What about the “change of blood pressure (hypotensive effect)” value [4] of the same molecule?
**A.** did not change the blood pressure

**Q.** What about the “duration of activity” value ([2]; FIGS. 2 to 5) of the same molecule?
**A.** more prolonged duration of activity compared with Compound F

**Q.** For `O=C(OCCCCCCCCCCc1ccccc1)c1csc(SCCN2C(=O)CC[C@@H]2COc2cc(Cl)cc(Cl)c2)n1` [Compound G, 10-phenyldecyl 2-[(2-{(2R)-2-[(3,5-dichlorophenoxy)methyl]-5-oxopyrrolidin-1-yl}ethyl)sulfanyl]-1,3-thiazole-4-carboxylate], which “duration of activity” value ([2]; FIGS. 2 to 5) is on record?
**A.** more prolonged duration of activity compared with Compound F
